Results reported in patent publication US9302999B2, “Substituted triazoles as herbicides” (E. I. DU PONT DE NEMOURS AND COMPANY, priority 2012, dated 2016).

Legend:
Format in all cases: in vivo
[1] = system: morningglory (Ipomoea coccinea); assay: Test C pre-/postemergence: morningglory
How it was run: (§1)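 Preemergence on seeds in loam/sand, postemergence on 2–18 cm (1–4-leaf) plants in peat-based medium; compounds in non-phytotoxic solvent with surfactant. After 13–15 days in greenhouse, visual rating versus controls, 0 (no effect) to 100 (complete control).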

[2] = system: pigweed (Amaranthus retroflexus); assay: Test A pre-/postemergence: pigweed; conditions: for Pigweed plant response rating: visual rating on 0 to 100 scale (0 no effect, 100 complete control), approximately ten days
How it was run: (§2)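 Rating scale 0–100 (100 = complete control), visual, ~10 days after application in the greenhouse. Applications: preemergence directed soil spray; postemergence at 1–2 leaves.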

[3] = system: ducksalad (Heteranthera limosa); assay: Test B flooded paddy: ducksalad; conditions: Flood; 250 g ai/ha; applied to paddy water at 2-leaf stage; visually evaluated after 13 to 15 days
How it was run: (§3)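 Plants were grown to the 2-leaf stage and pots flooded to 3 cm above soil. Compounds were applied directly into the paddy water, with depth kept for the test. After 13–15 days in greenhouse, response was rated visually against controls on a 0 (no effect) to 100 (complete control) scale.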

[4] = system: sedge, umbrella (small-flower umbrella sedge Cyperus difformis); assay: Test B flooded paddy: sedge, umbrella; conditions: Flood; 250 g ai/ha; applied to paddy water at 2-leaf stage; visually evaluated after 13 to 15 days
How it was run: as §3

[5] = system: common (oilseed) sunflower (Helianthus annuus); assay: Test C pre-/postemergence: sunflower; conditions: Preemergence
How it was run: as §1

[6] = system: ragweed (common ragweed, Ambrosia elation); assay: Test C pre-/postemergence: ragweed
How it was run: as §1

[7] = system: bermudagrass (Cynodon dactylon); assay: Test C pre-/postemergence: bermudagrass
How it was run: as §1

corn (Zea mays) = assay: Test A pre-/postemergence: corn; conditions: for Corn plant response rating: Postemergence; for Plant response rating, Corn: Preemergence
How it was run: as §2

[8] = system: lambsquarters (Chenopodium album); assay: Test C pre-/postemergence: lambsquarters
How it was run: as §1

[9] = system: wheat (Triticum aestivum); assay: Test A pre-/postemergence: wheat; conditions: for Wheat plant response rating: visual rating on 0 to 100 scale (0 no effect, 100 complete control), approximately ten days
How it was run: as §2

[10] = Postemergence, 31 g ai/ha, scale 0 to 100 (0 no effect, 100 complete control)
[11] = Postemergence, 62 g ai/ha, scale 0 to 100 (0 no effect, 100 complete control)
[12] = Postemergence, 125 g ai/ha, scale 0 to 100, 0 no effect, 100 complete control
[13] = Postemergence, 250 g ai/ha, scale 0 to 100
[14] = Preemergence, 31 g ai/ha, scale of 0 to 100, 0 is no effect, 100 is complete control
[15] = Preemergence, 62 g ai/ha, scale of 0 to 100, 0 is no effect, 100 is complete control
[16] = Preemergence, 125 g ai/ha, scale 0 to 100, 0 no effect, 100 complete control
[17] = Preemergence, 250 g ai/ha, scale 0 to 100, 0 no effect, 100 complete control
[18] = Postemergence, 125 g ai/ha, 0 to 100 scale, 0 is no effect, 100 is complete control
[19] = Preemergence, 125 g ai/ha, 0 to 100 scale where 0 is no effect and 100 is complete control
[20] = Preemergence, 500 g ai/ha, 0 to 100 scale (0 no effect, 100 complete control)
[21] = 31 g ai/ha, scale of 0 to 100, 0 is no effect, 100 is complete control
[22] = 62 g ai/ha, scale of 0 to 100, 0 is no effect, 100 is complete control
[23] = 125 g ai/ha, scale 0 to 100, 0 no effect, 100 complete control
[24] = 250 g ai/ha, scale 0 to 100, 0 no effect, 100 complete control
[25] = 125 g ai/ha, 0 to 100 scale, 0 is no effect, 100 is complete control
[26] = 500 g ai/ha, visual rating on 0 to 100 scale (0 no effect, 100 complete control), approximately ten days
[27] = 125 g ai/ha, 0 to 100 scale where 0 is no effect and 100 is complete control
[28] = 500 g ai/ha, 0 to 100 scale (0 no effect, 100 complete control)

COc1nn(-c2ccc(C(F)(F)F)cc2)nc1Cc1ccnc(C(F)F)c1 [Compound 138]
Plant response rating, Morningglory [1, 10]: 90 | Plant response rating, Morningglory [1, 11]: 90 | Plant response rating, Morningglory [1, 12]: 98 | Plant response rating, Morningglory [1, 13]: 98 | Plant response rating, Morningglory [1, 14]: 15 | Plant response rating, Morningglory [1, 15]: 55 | Plant response rating, Morningglory [1, 16]: 65 | Plant response rating, Morningglory [1, 17]: 98 | Plant response rating, Pigweed [2, 18]: 100 | Pigweed plant response rating ([2]; Postemergence, 500 g ai/ha): 100 | Plant response rating, Pigweed [2, 19]: 100 | Plant response rating, Pigweed [2, 20]: 100 | Plant response rating, Ducksalad (0 to 100 scale, 0 is no effect, 100 is complete control) [3]: 90 | Plant response rating, Sedge, Umbrella (0 to 100 scale, 0 is no effect, 100 is complete control) [4]: 90 | Plant response rating, Sunflower [5, 21]: 5 | Plant response rating, Sunflower [5, 22]: 10 | Plant response rating, Sunflower [5, 23]: 30 | Plant response rating, Sunflower [5, 24]: 30 | Plant response rating, Ragweed [6, 10]: 75 | Plant response rating, Ragweed [6, 11]: 80 | Plant response rating, Ragweed [6, 12]: 85 | Plant response rating, Ragweed [6, 13]: 85 | Plant response rating, Ragweed [6, 14]: 40 | Plant response rating, Ragweed [6, 15]: 45 | Plant response rating, Ragweed [6, 16]: 50 | Plant response rating, Ragweed [6, 17]: 50 | Plant response rating, Bermudagrass [7, 10]: 20 | Plant response rating, Bermudagrass [7, 11]: 45 | Plant response rating, Bermudagrass [7, 12]: 75 | Plant response rating, Bermudagrass [7, 13]: 95 | Plant response rating, Bermudagrass [7, 14]: 100 | Plant response rating, Bermudagrass [7, 15]: 100 | Plant response rating, Bermudagrass [7, 16]: 100 | Plant response rating, Bermudagrass [7, 17]: 100 | Corn plant response rating (corn (Zea mays); [25]): 50 | Corn plant response rating (corn (Zea mays); [26]): 70 | Plant response rating, Corn (corn (Zea mays); [27]): 30 | Plant response rating, Corn (corn (Zea mays); [28]): 60 | Plant response rating, Lambsquarters [8, 10]: 100 | Plant response rating, Lambsquarters [8, 11]: 100 | Plant response rating, Lambsquarters [8, 12]: 100 | Plant response rating, Lambsquarters [8, 13]: 100 | Plant response rating, Lambsquarters [8, 14]: 95 | Plant response rating, Lambsquarters [8, 15]: 98 | Plant response rating, Lambsquarters [8, 16]: 98 | Plant response rating, Lambsquarters [8, 17]: 98 | Plant response rating, Wheat [9, 18]: 50 | Wheat plant response rating ([9]; Postemergence, 500 g ai/ha): 60 | Plant response rating, Wheat [9, 19]: 30 | Plant response rating, Wheat [9, 20]: 60

COc1nn(-c2cccc(F)c2)nc1Cc1ccnc(C(F)(F)F)c1 [Compound 139]
Plant response rating, Morningglory [1, 10]: 55 | Plant response rating, Morningglory [1, 11]: 60 | Plant response rating, Morningglory [1, 12]: 60 | Plant response rating, Morningglory [1, 13]: 70 | Plant response rating, Morningglory [1, 14]: 15 | Plant response rating, Morningglory [1, 15]: 15 | Plant response rating, Morningglory [1, 16]: 35 | Plant response rating, Morningglory [1, 17]: 55 | Plant response rating, Pigweed [2, 18]: 100 | Pigweed plant response rating ([2]; Postemergence, 500 g ai/ha): 100 | Plant response rating, Pigweed [2, 19]: 100 | Plant response rating, Pigweed [2, 20]: 100 | Plant response rating, Ducksalad (0 to 100 scale, 0 is no effect, 100 is complete control) [3]: 70 | Plant response rating, Sedge, Umbrella (0 to 100 scale, 0 is no effect, 100 is complete control) [4]: 80 | Plant response rating, Sunflower [5, 21]: 0 | Plant response rating, Sunflower [5, 22]: 0 | Plant response rating, Sunflower [5, 23]: 5 | Plant response rating, Sunflower [5, 24]: 10 | Plant response rating, Ragweed [6, 11]: 40 | Plant response rating, Ragweed [6, 12]: 45 | Plant response rating, Ragweed [6, 13]: 75 | Plant response rating, Ragweed [6, 14]: 0 | Plant response rating, Ragweed [6, 15]: 0 | Plant response rating, Ragweed [6, 16]: 30 | Plant response rating, Ragweed [6, 17]: 55 | Plant response rating, Bermudagrass [7, 10]: 35 | Plant response rating, Bermudagrass [7, 11]: 40 | Plant response rating, Bermudagrass [7, 12]: 55 | Plant response rating, Bermudagrass [7, 13]: 80 | Plant response rating, Bermudagrass [7, 14]: 98 | Plant response rating, Bermudagrass [7, 15]: 100 | Plant response rating, Bermudagrass [7, 16]: 100 | Plant response rating, Bermudagrass [7, 17]: 100 | Corn plant response rating (corn (Zea mays); [25]): 30 | Corn plant response rating (corn (Zea mays); [26]): 50 | Plant response rating, Corn (corn (Zea mays); [27]): 10 | Plant response rating, Corn (corn (Zea mays); [28]): 30 | Plant response rating, Lambsquarters [8, 10]: 90 | Plant response rating, Lambsquarters [8, 11]: 95 | Plant response rating, Lambsquarters [8, 12]: 95 | Plant response rating, Lambsquarters [8, 13]: 98 | Plant response rating, Lambsquarters [8, 14]: 60 | Plant response rating, Lambsquarters [8, 15]: 70 | Plant response rating, Lambsquarters [8, 16]: 85 | Plant response rating, Lambsquarters [8, 17]: 90 | Plant response rating, Wheat [9, 18]: 30 | Wheat plant response rating ([9]; Postemergence, 500 g ai/ha): 40 | Plant response rating, Wheat [9, 19]: 10 | Plant response rating, Wheat [9, 20]: 50
